A short description of assay [1]: Inhibition of recombinant PDGFR (unknown origin). On the set-up: species or system Homo sapiens.
Assay [2] concerns the target Serine/threonine-protein kinase NIM1 (Homo sapiens, UniProt Q8IY84). In words: Inhibition of recombinant NIM1 (unknown origin).
The target of assay [3] is Tyrosine-protein kinase JAK1 (Homo sapiens, UniProt P23458). The assay can be described thus: Inhibition of recombinant JAK1 (unknown origin).
Assay [4] has as its target Non-receptor tyrosine-protein kinase TYK2 (Homo sapiens, UniProt P29597). In words: Inhibition of recombinant TYK 2 (unknown origin).
The target in assay [5] is Inhibitor of nuclear factor kappa-B kinase subunit beta (Homo sapiens, UniProt O14920). The assay can be described thus: Inhibition of recombinant IKK2 (unknown origin).
The target in assay [6] is Eukaryotic translation initiation factor 2-alpha kinase 3 (Homo sapiens, UniProt Q9NZJ5). In words: Inhibition of recombinant PERK (unknown origin).
Assay [7] concerns the target Mitotic checkpoint serine/threonine-protein kinase BUB1 (Homo sapiens, UniProt O43683). In words: Inhibition of recombinant BUB1 (unknown origin).
Assay [8] is described as follows: Inhibition of recombinant ABL (unknown origin). On the set-up: species or system Homo sapiens.
Another assay deals with Focal adhesion kinase 1 (Homo sapiens, UniProt Q05397). The assay can be described thus: Inhibition of recombinant FAK (unknown origin).
The target of assay [9] is T1, Dual specificity protein kinase TTK (Homo sapiens, UniProt P33981).
T1 sequence (P33981 whole entry): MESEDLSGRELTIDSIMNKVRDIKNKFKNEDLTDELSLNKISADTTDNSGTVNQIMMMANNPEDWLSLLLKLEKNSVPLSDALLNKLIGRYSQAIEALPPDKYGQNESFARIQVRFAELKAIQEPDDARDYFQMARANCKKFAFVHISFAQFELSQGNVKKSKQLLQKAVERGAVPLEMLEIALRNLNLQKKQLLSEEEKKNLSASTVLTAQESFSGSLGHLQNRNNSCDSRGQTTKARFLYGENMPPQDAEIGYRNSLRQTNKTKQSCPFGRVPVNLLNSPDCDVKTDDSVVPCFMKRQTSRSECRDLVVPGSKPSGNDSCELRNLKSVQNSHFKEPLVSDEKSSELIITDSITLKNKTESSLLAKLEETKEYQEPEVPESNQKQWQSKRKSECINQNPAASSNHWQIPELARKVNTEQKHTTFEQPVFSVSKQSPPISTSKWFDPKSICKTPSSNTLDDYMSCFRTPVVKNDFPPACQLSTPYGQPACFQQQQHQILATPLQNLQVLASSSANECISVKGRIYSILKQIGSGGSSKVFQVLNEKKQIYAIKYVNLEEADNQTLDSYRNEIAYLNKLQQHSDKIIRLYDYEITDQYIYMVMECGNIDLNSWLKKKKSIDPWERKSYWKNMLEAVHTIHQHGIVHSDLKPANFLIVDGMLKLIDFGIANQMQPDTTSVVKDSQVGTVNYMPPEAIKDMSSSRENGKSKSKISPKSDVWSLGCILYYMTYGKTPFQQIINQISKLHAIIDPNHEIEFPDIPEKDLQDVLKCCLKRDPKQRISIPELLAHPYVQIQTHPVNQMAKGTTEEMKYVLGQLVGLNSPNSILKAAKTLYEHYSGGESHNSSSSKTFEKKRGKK
The assay can be described thus: Inhibition of MPS1 in human taxol-arrested U2OS cells assessed as effect on histone H3 phosphorylation at ser10 residue incubated for 2 hrs by arrayscan analysis. It counts as cell-based.

Assay [10] addresses Protein kinase C beta type (Homo sapiens, UniProt P05771). The assay can be described thus: Inhibition of recombinant PKCbeta (unknown origin).
Assay [11] deals with Tyrosine-protein kinase ZAP-70 (Homo sapiens, UniProt P43403). In words: Inhibition of recombinant ZAP70 (unknown origin).
For assay [12], the target named is Tyrosine-protein kinase Lck (Homo sapiens, UniProt P06239). In words: Inhibition of recombinant LCK (unknown origin).
Assay [13] concerns the target MAP kinase-activated protein kinase 2 (Homo sapiens, UniProt P49137). The assay can be described thus: Inhibition of recombinant MAPKAPK2 (unknown origin).
The target in assay [14] is High affinity nerve growth factor receptor (Homo sapiens, UniProt P04629). In words: Inhibition of recombinant TRKA (unknown origin).
In assay [15] the target is T1, Dual specificity protein kinase TTK. The assay can be described thus: Inhibition of recombinant MPS1 (unknown origin).
Assay [16] addresses Serine/threonine-protein kinase PLK1 (Homo sapiens, UniProt P53350). In words: Inhibition of recombinant PLK1 (unknown origin).
Assay [17] concerns the target Serine/threonine-protein kinase Nek6 (Homo sapiens, UniProt Q9HC98). The assay can be described thus: Inhibition of recombinant NEK6 (unknown origin).
The target of assay [18] is Mitogen-activated protein kinase 1 (Homo sapiens, UniProt P28482). In words: Inhibition of recombinant ERK2 (unknown origin).
The target in assay [19] is Serine/threonine-protein kinase pim-1 (Homo sapiens, UniProt P11309). In words: Inhibition of recombinant PIM1 (unknown origin).
For assay [20], the target named is ALK tyrosine kinase receptor (Homo sapiens, UniProt Q9UM73). The assay can be described thus: Inhibition of recombinant ALK (unknown origin).
Assay [21] can be described thus: Inhibition of recombinant AUR2 (unknown origin). On the set-up: species or system Homo sapiens.
The target of assay [22] is Receptor-type tyrosine-protein kinase FLT3 (Homo sapiens, UniProt P36888). In words: Inhibition of recombinant FLT3 (unknown origin).
For assay [23], the target named is Protein-tyrosine kinase 6 (Homo sapiens, UniProt Q13882). In words: Inhibition of recombinant BRK (unknown origin).
Assay [24] has as its target Serine/threonine-protein kinase 26 (Homo sapiens, UniProt Q9P289). The assay can be described thus: Inhibition of recombinant MST4 (unknown origin).
Assay [25] addresses Tyrosine-protein kinase JAK3 (Homo sapiens, UniProt P52333). In words: Inhibition of recombinant JAK3 (unknown origin).
Assay [26] deals with CDC7/DBF4 (Cell division cycle 7-related protein kinase/Activator of S phase kinase) (Homo sapiens, UniProt O00311). In words: Inhibition of recombinant CDC7/DBF4 (unknown origin). It counts as protein-complex assay.
Assay [27] has as its target Serine/threonine-protein kinase PAK 4 (Homo sapiens, UniProt O96013). In words: Inhibition of recombinant PAK4 (unknown origin).
A short description of assay [28]: Inhibition of recombinant SULU1 (unknown origin). On the set-up: species or system Homo sapiens.
For assay [29], the target named is Eukaryotic elongation factor 2 kinase (Homo sapiens, UniProt O00418). The assay can be described thus: Inhibition of recombinant EEF2K (unknown origin).
Assay [30] deals with Tyrosine-protein kinase Lyn (Homo sapiens, UniProt P07948). In words: Inhibition of recombinant LYN (unknown origin).
Assay [31] concerns the target Vascular endothelial growth factor receptor 3 (Homo sapiens, UniProt P35916). In words: Inhibition of recombinant VEGFR3 (unknown origin).
The target of assay [32] is RAC-alpha serine/threonine-protein kinase (Homo sapiens, UniProt P31749). In words: Inhibition of recombinant AKT1 (unknown origin).
Assay [33] addresses Vascular endothelial growth factor receptor 2 (Homo sapiens, UniProt P35968). The assay can be described thus: Inhibition of recombinant VEGFR2 (unknown origin).
Assay [34] in a line: Inhibition of recombinant AUR1 (unknown origin). Also on record: species or system Homo sapiens.
The target of assay [35] is Serine/threonine-protein kinase Chk1 (Homo sapiens, UniProt O14757). The assay can be described thus: Inhibition of recombinant CHK1 (unknown origin).
The target in assay [36] is Serine/threonine-protein kinase pim-2 (Homo sapiens, UniProt Q9P1W9). The assay can be described thus: Inhibition of recombinant PIM2 (unknown origin).
For assay [37], the target named is Mast/stem cell growth factor receptor Kit (Homo sapiens, UniProt P10721). The assay can be described thus: Inhibition of recombinant KIT (unknown origin).
For assay [38], the target named is Proto-oncogene tyrosine-protein kinase receptor Ret (Homo sapiens, UniProt P07949). The assay can be described thus: Inhibition of recombinant RET (unknown origin).
The target in assay [39] is Serine/threonine-protein kinase haspin (Homo sapiens, UniProt Q8TF76). In words: Inhibition of recombinant Haspin (unknown origin).
A further assay has as its target Activated CDC42 kinase 1 (Homo sapiens, UniProt Q07912). In words: Inhibition of recombinant ACK1 (unknown origin).
Assay [40] concerns the target Maternal embryonic leucine zipper kinase (Homo sapiens, UniProt Q14680). The assay can be described thus: Inhibition of recombinant MELK (unknown origin).
The target of the next assay is Casein kinase 2 (Homo sapiens, UniProt P67870+P68400+P19784+Q8NEV1). In words: Inhibition of recombinant CK2 (unknown origin). It counts as protein assay.
The target of assay [41] is Glycogen synthase kinase-3 beta (Homo sapiens, UniProt P49841). The assay can be described thus: Inhibition of recombinant GSK3beta (unknown origin).
Assay [42] deals with Fibroblast growth factor receptor 1 (Homo sapiens, UniProt P11362). In words: Inhibition of recombinant FGFR1 (unknown origin).
The next assay has as its target Insulin receptor (Homo sapiens, UniProt P06213). In words: Inhibition of recombinant IR (unknown origin).

In general, IC50 refers to the concentration at which inhibition is half-maximal. Usually EC50 stands for the concentration giving half of the maximal effect.

Sequence of Insulin receptor (P06213 28-758 limits assumed): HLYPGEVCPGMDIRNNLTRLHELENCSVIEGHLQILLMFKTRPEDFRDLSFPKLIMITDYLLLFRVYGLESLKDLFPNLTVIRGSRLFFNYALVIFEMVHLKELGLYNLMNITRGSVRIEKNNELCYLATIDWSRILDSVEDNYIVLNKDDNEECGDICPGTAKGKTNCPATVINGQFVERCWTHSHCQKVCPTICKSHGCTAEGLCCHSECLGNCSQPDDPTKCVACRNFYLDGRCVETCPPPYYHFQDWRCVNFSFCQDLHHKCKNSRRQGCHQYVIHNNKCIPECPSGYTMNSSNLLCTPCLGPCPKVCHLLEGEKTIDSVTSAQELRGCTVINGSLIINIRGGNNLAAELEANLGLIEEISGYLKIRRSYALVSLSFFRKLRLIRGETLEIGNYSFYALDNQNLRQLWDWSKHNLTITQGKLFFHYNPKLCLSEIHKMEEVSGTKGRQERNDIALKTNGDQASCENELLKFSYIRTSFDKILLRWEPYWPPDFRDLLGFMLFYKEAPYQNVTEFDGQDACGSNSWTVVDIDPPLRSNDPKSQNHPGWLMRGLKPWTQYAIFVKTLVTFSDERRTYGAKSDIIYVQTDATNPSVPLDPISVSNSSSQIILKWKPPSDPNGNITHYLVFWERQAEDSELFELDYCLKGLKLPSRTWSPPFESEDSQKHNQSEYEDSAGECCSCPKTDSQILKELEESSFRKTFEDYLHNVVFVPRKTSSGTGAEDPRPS
Sequence of Insulin receptor (P06213 763-1382 limits assumed): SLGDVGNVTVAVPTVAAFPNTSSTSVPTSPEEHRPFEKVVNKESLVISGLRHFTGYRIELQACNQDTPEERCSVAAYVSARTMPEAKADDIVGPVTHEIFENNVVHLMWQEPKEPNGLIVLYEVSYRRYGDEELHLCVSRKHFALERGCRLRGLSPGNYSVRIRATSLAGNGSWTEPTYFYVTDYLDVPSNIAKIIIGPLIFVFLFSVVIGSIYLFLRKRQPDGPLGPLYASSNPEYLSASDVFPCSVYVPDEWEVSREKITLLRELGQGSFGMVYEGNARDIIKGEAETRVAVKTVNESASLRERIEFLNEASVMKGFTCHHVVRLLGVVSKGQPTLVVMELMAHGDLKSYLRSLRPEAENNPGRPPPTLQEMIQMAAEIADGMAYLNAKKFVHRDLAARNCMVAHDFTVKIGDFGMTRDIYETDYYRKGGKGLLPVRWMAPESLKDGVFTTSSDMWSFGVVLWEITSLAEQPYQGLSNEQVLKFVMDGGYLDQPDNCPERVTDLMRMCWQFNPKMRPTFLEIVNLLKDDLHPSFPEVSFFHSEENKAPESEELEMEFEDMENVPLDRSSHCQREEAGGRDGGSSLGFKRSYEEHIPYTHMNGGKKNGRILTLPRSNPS
Sequence of Focal adhesion kinase 1 (Q05397 whole entry): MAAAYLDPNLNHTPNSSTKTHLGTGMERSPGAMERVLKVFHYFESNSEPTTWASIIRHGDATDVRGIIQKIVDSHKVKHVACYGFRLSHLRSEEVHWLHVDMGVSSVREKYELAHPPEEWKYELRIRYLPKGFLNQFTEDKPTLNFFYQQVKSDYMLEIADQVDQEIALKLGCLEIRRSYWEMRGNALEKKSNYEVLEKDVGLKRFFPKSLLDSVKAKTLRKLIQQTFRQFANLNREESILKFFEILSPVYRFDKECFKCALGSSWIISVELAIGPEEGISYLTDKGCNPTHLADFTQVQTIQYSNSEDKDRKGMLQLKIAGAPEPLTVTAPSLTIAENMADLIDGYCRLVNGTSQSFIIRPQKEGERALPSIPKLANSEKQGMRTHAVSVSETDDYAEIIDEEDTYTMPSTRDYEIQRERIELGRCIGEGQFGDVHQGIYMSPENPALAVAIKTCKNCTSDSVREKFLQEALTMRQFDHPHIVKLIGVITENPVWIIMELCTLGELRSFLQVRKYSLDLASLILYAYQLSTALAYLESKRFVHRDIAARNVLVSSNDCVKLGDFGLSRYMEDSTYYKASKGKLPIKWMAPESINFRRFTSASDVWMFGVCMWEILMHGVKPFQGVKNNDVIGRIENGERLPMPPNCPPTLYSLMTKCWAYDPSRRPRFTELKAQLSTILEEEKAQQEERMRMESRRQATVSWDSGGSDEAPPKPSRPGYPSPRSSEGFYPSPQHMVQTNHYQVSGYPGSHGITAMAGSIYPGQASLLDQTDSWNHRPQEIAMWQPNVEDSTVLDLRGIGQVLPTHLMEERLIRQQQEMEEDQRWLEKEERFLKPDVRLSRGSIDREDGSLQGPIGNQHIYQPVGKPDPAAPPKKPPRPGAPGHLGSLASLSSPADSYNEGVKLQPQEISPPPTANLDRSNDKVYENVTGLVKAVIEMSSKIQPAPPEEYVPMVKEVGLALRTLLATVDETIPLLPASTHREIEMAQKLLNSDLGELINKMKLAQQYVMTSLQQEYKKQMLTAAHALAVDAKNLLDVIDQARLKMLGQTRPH
Sequence of ALK tyrosine kinase receptor (Q9UM73 whole entry): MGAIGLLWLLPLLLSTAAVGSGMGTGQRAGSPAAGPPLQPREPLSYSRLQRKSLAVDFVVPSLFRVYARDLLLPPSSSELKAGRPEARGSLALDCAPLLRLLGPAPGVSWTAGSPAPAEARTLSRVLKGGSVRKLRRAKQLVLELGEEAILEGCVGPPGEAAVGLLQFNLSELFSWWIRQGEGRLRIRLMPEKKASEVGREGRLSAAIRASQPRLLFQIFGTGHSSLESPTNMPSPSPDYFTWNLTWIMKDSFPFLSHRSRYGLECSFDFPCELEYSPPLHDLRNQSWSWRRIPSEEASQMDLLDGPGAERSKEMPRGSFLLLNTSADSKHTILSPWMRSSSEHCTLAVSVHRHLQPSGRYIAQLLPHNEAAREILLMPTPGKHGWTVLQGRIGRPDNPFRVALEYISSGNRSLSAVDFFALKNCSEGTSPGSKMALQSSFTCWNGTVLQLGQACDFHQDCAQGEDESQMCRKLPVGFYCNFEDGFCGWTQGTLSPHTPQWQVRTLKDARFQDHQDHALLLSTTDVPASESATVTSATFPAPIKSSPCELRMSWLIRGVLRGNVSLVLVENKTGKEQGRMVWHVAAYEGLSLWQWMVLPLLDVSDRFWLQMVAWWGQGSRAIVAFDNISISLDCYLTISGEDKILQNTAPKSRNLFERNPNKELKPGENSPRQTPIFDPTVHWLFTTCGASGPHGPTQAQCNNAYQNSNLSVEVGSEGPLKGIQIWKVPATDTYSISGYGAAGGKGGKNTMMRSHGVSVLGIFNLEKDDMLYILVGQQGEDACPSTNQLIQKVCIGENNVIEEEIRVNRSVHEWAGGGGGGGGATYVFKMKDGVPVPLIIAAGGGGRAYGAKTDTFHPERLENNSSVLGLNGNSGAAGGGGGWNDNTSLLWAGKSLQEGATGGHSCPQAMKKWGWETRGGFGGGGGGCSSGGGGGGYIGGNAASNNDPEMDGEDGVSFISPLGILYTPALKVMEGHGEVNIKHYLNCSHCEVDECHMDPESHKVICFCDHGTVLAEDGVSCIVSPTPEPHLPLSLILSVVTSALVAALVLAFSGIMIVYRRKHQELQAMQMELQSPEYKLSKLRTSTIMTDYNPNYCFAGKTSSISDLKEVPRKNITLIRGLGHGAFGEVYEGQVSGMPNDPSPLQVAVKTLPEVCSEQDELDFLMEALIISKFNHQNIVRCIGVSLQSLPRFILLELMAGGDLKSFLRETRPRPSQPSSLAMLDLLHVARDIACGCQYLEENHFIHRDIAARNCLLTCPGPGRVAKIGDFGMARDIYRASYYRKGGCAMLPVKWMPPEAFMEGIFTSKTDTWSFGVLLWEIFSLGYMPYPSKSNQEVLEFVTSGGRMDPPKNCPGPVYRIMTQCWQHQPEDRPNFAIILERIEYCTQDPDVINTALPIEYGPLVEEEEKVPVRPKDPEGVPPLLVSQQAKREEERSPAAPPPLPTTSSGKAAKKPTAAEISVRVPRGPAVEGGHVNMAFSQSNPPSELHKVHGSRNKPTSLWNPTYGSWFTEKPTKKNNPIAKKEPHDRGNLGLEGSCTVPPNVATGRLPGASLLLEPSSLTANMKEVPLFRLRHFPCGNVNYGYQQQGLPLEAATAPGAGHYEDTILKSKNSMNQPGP
Sequence of Serine/threonine-protein kinase 26 (Q9P289 whole entry): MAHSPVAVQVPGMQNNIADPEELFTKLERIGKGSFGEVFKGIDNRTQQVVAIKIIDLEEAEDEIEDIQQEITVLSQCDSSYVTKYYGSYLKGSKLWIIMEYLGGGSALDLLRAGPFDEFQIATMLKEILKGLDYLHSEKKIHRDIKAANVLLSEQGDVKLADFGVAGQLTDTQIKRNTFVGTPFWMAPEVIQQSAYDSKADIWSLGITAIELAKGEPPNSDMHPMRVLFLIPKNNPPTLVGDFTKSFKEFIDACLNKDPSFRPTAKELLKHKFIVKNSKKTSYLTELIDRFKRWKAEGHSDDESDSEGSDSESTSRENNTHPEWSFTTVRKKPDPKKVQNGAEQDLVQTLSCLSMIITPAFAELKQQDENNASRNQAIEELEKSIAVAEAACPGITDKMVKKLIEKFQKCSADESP
Sequence of MAP kinase-activated protein kinase 2 (P49137 whole entry): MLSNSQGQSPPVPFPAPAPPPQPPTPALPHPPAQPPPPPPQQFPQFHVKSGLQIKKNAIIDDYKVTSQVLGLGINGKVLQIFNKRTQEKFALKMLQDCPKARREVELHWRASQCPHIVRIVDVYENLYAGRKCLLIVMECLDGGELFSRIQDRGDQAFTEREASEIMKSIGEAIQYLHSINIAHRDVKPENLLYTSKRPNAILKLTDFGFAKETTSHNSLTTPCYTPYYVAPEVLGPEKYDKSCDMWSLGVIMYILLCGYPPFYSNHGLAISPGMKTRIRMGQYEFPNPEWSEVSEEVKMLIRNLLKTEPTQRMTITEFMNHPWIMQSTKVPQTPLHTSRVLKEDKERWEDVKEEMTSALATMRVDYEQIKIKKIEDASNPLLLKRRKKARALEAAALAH

On to `O=C1c2ccccc2-c2n[nH]c3cccc1c23`, for which the IC50 was more than 10000 nM in assay [1]; more than 10000 nM in assay [2]; 4650 nM in [3]; 880 nM in assay [4]; 1020 nM in assay [5]; more than 10000 nM in assay [6]. Besides, the IC50 in assay [7] is more than 10000 nM; in assay [8], more than 10000 nM; at Focal adhesion kinase 1 it was 3860 nM; in [10], more than 10000 nM; in assay [11] it was more than 10000 nM; in assay [12] it was more than 10000 nM. The IC50 in assay [13] is more than 10000 nM; in assay [14], 70 nM; in assay [15], 1950 nM; in [16] it was more than 10000 nM; in assay [17] it was more than 10000 nM; in assay [18] it was more than 10000 nM. Besides, the IC50 is 3280 nM in [19]; more than 10000 nM in assay [20]; 190 nM in assay [21]; 90 nM in [22]; more than 10000 nM in [23]; more than 10000 nM in assay [24]. Besides, the IC50 was 410 nM in assay [25]; 1590 nM in assay [26]; more than 10000 nM in [27]; more than 10000 nM in [28]; more than 10000 nM in [29]; more than 10000 nM in assay [30]. Further, the 50% inhibitory concentration (IC50) in assay [31] was 300 nM; in assay [32] it was more than 10000 nM; in assay [33], 2930 nM; in assay [34] it was 60 nM; in [35] it was more than 10000 nM; in assay [36], 1050 nM. In addition, the IC50 in assay [37] stood at 870 nM; in assay [38], 1090 nM; in assay [39], 510 nM; at Activated CDC42 kinase 1, 2290 nM; in assay [40], 110 nM; on Casein kinase 2, 650 nM. In addition, the IC50 in assay [41] is more than 10000 nM; in assay [42], 2400 nM; at Insulin receptor, 4010 nM. Moreover, in [9], the half-maximal effective concentration (EC50) amounted to 8980 nM.
Take `Cn1c2ccccc2c2c3c(c4c5ccccc5n(CCC#N)c4c21)CNC3=O` [GO-6976]: the EC50 in [9] (u2os) is 1990 nM.
As to `COc1cc2c(Nc3ccc(NC(=O)c4ccccc4)cc3)ncnc2cc1OCCCN1CCOCC1`, the concentration for a half-maximal effect (EC50) in [9] (u2os) worked out at 2280 nM.
